# Source: PubChem BioAssay (NCI)
#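 Where inhibition never reached the appropriate level, the endpoint shown equals the highest concentration tested. Otherwise, values were interpolated linearly from a five-concentration, 48-hour dose response in 96-well plates. GI50 = concentration required for 50% inhibition of growth. TGI is the concentration that stops growth completely.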
# System: SW-620 colon
# Assay: inhibition of tumour cell growth, NCI panel, 48 h
Structure (SMILES),TGI [µM],GI50 [µM]
CC[C@@]1(O)C(=O)OCc2c1cc1n(c2=O)Cc2c-1nc1ccccc1c2/C=N\NC(=O)CN,> 100,
CCc1ccc(CCN2CCCCC2)nc1,> 100,
O=C(NNC(=O)c1ccccc1SSc1ccccc1C(=O)NNC(=O)c1ccccc1S)c1ccccc1S,> 100,
CCOC(=O)C(NC(C)=O)(Nc1ccc(F)cc1)C(F)(F)F (stereo not drawn),> 100,
CCOc1cc2c(cc1O)/C(=N\OC)C[C@@H]1[C@@H]2CC[C@]2(C)[C@@H](O)CC[C@@H]12,> 35.3,
O=C1/C(=C/c2ccc(O)cc2)CC/C1=C\c1ccc(O)cc1,> 100,
CC(C)C1/C(=N/O)CC(c2ccccc2)N(N=O)C1c1ccccc1 (stereo not drawn),> 100,
CC1(C)N=C(/C(Cl)=[N+](/[O-])C(=O)c2ccc(F)cc2)C(C)(C)N1O,39.2,
COC(=O)[C@H](Cc1c[nH]c2ccccc12)NP(=O)(O)OCC1C=CC(n2cc(C)c(=O)[nH]c2=O)O1 (stereo partly drawn),> 100,
COc1cc(/C=C2\S/C(=N/Nc3nc(-c4ccc(Br)cc4)cs3)NC2=O)cc(OC)c1OC,30.8,
COC(=O)[C@H]1CO[C@@H](C(C)(C)C)N1C(=O)N1C=CC(=O)C[C@@H]1C,> 100,
CCCNC1=C2CC(C)CC(OC)[C@@H](O)[C@H](C)/C=C(\C)C(OC(N)=O)C(OC)/C=C\C=C(/C)C(=O)NC(=CC1=O)C2=O (stereo partly drawn),> 100,0.0606
CCC1(O)CC2CC(=O)OC2C1O (stereo not drawn),> 100,
Cc1ccc(SCC(CSCCO)OCn2cnc3c2NC(N)=NC32OCCO2)cc1 (stereo not drawn),> 100,
C(/c1ccco1)=c1/nc(-c2ccccc2)n2c1nc1ccccc12,> 100,
COC(=O)C1CCC(=O)N1C(c1ccccc1)c1ccc(OC)c(OC)c1 (stereo not drawn),> 100,
Oc1cccc2c(Cl)ccnc12,29.3,
Cc1cccc(/C=N/NC(=S)Nc2ccccc2)n1,> 100,
N#CC1=C(N)N(c2ccccc2)C(c2ccco2)C1(C#N)C#N (stereo not drawn),39.2,
NC(=O)C(c1ccccc1)N1OC2C(=O)N(c3ccccc3)C(=O)C2C1c1c2ccccc2c(Cl)c2ccccc12 (stereo not drawn),> 100,
CC(C)c1ccc(/C=C2/C=C(c3ccc4ccccc4c3)OC2=O)cc1,> 100,
COc1ccc(/C=C2\CCC(C)C3=C2NC(=S)NC3c2ccc(OC)c(OC)c2)cc1OC (stereo not drawn),> 31.6,

Structure (SMILES),TGI [µM],GI50 [µM]
COc1ccc2c(=O)c(O)c(-c3ccc(OC)c(OC)c3)oc2c1,> 100,
COc1ccc(C(OCC2OC(n3cc(C)c(=O)[nH]c3=O)CC2n2cc(Cn3cc(I)c(=O)[nH]c3=O)nn2)(c2ccccc2)c2ccccc2)cc1 (stereo not drawn),> 100,
O=S1(=O)NC(=NCc2c[nH]c3ccccc23)N(c2ccccc2)c2ccncc21,> 100,
COc1ccc(CNc2nc(NCc3ccc(OC)c(OC)c3)nc(NC3CCCCC3)n2)cc1,> 100,
CC1=CC2C(O1)C1C(=O)C=CC(=O)C1=CC2[N+](=O)[O-] (stereo not drawn),> 24.3,
C=C(Br)C(C)(Cl)CCC(Br)C(C)(C)Cl (stereo not drawn),94.7,
O=C(CCC(=O)c1ccc(Cl)cc1)NO,> 100,
COc1c(C)c(C/C=C(\C)CCCCO[Si](c2ccccc2)(c2ccccc2)C(C)(C)C)c(OC)c(OC)c1OC,> 46.4,
CN1CCN([C@H]2C[C@H]3[C@@H]4CC=C5C[C@@H](O)CC[C@]5(C)[C@H]4CC[C@]3(C)C2=O)CC1,> 100,
COc1ccc(C2c3cc4c(cc3OC(NNS(=O)(=O)c3ccc(C)cc3)C2C)OCO4)cc1 (stereo not drawn),> 100,
C[C@@]12C[C@@H](c3ccccc3O1)N1CCCCSC1=N2,> 100,
CCOC(=O)Nn1c(C)nnc1-c1ccccc1,> 100,
Cc1cn(C2CC(n3cc(Cn4cc(I)c(=O)[nH]c4=O)nn3)C(CO)O2)c(=O)[nH]c1=O (stereo not drawn),> 100,
CNC(=O)OCC1=C(COC(=O)NC)C(C)N(c2ccc(OC)cc2)C1 (stereo not drawn),> 100,
Cc1nc(C(N)=S)sc1/C(CC(=O)C(=O)Nc1cccc2ccc(O)cc12)=N\NC(=O)c1ccncc1,> 100,
Cc1cc(O)c2c(=O)c3ccccc3[nH]c2c1,> 100,
Cc1cn(C2CC(N(O)C(N)=O)C(CO)O2)c(=O)[nH]c1=O (stereo not drawn),> 100,
O=C(O)c1cccc2c1/C(=N/Nc1ccccc1)CC2,> 100,
O=C(Cc1cccs1)N[C@@H]1C(=O)N2C(C(=O)OC(c3ccccc3)c3ccccc3)=C(CO)CS[C@H]12,> 100,
Nc1cccc2cc(Cl)cnc12,> 100,
Cc1ccccc1-n1c(=O)c2ncn(CCCl)c2n(-c2ccccc2C)c1=S,> 100,

# System: SK-MEL-2 melanoma
# Assay: inhibition of tumour cell growth, NCI panel, 48 h
Structure (SMILES),TGI [µM],GI50 [µM]
O=c1[nH][nH]c(=O)n1Cc1ccccc1Cn1c(=O)[nH][nH]c1=O,> 100,
CCNC(=S)N/N=C/c1cc([N+](=O)[O-])ccc1O,> 100,
CCOC(=O)c1c2ccccc2n2c(N)c(C(N)=O)nnc12,> 100,
Cc1cc(N(CCC#N)CCC#N)ccc1/C(N=Nc1ccc(Cl)cc1)=N\NC(=O)c1ccccc1,> 100,
CC[C@@]1(O)C(=O)OCc2c1cc1n(c2=O)Cc2c-1nc1ccccc1c2/C=N\NC(=O)CN,> 100,
CCc1ccc(CCN2CCCCC2)nc1,> 100,
O=C(NNC(=O)c1ccccc1SSc1ccccc1C(=O)NNC(=O)c1ccccc1S)c1ccccc1S,> 90.5,
CCOC(=O)C(NC(C)=O)(Nc1ccc(F)cc1)C(F)(F)F (stereo not drawn),> 100,
CCOc1cc2c(cc1O)/C(=N\OC)C[C@@H]1[C@@H]2CC[C@]2(C)[C@@H](O)CC[C@@H]12,4.42,
O=C1/C(=C/c2ccc(O)cc2)CC/C1=C\c1ccc(O)cc1,> 100,
CC(C)C1/C(=N/O)CC(c2ccccc2)N(N=O)C1c1ccccc1 (stereo not drawn),73.6,
CC1(C)N=C(/C(Cl)=[N+](/[O-])C(=O)c2ccc(F)cc2)C(C)(C)N1O,40.3,
COC(=O)[C@H](Cc1c[nH]c2ccccc12)NP(=O)(O)OCC1C=CC(n2cc(C)c(=O)[nH]c2=O)O1 (stereo partly drawn),> 100,
COc1cc(/C=C2\S/C(=N/Nc3nc(-c4ccc(Br)cc4)cs3)NC2=O)cc(OC)c1OC,35.8,
COC(=O)[C@H]1CO[C@@H](C(C)(C)C)N1C(=O)N1C=CC(=O)C[C@@H]1C,> 100,
CCCNC1=C2CC(C)CC(OC)[C@@H](O)[C@H](C)/C=C(\C)C(OC(N)=O)C(OC)/C=C\C=C(/C)C(=O)NC(=CC1=O)C2=O (stereo partly drawn),31.4,13.1
CCC1(O)CC2CC(=O)OC2C1O (stereo not drawn),> 100,
Cc1ccc(SCC(CSCCO)OCn2cnc3c2NC(N)=NC32OCCO2)cc1 (stereo not drawn),> 100,
C(/c1ccco1)=c1/nc(-c2ccccc2)n2c1nc1ccccc12,> 100,
COC(=O)C1CCC(=O)N1C(c1ccccc1)c1ccc(OC)c(OC)c1 (stereo not drawn),> 100,
Cc1cccc(/C=N/NC(=S)Nc2ccccc2)n1,36,
N#CC1=C(N)N(c2ccccc2)C(c2ccco2)C1(C#N)C#N (stereo not drawn),59.4,
NC(=O)C(c1ccccc1)N1OC2C(=O)N(c3ccccc3)C(=O)C2C1c1c2ccccc2c(Cl)c2ccccc12 (stereo not drawn),> 100,
CC(C)c1ccc(/C=C2/C=C(c3ccc4ccccc4c3)OC2=O)cc1,39.6,

Structure (SMILES),TGI [µM],GI50 [µM]
COc1ccc(/C=C2\CCC(C)C3=C2NC(=S)NC3c2ccc(OC)c(OC)c2)cc1OC (stereo not drawn),> 31.6,
CC[C@@]1(C[C@H]2C[C@@]3(C(=O)OC)c4[nH]c5ccccc5c4CCN3C2=O)COC2(CCCCC2)O1,96.3,
COc1ccc(C(OCC2OC(n3cc(C)c(=O)[nH]c3=O)CC2n2cc(Cn3cc(I)c(=O)[nH]c3=O)nn2)(c2ccccc2)c2ccccc2)cc1 (stereo not drawn),> 100,
O=S1(=O)NC(=NCc2c[nH]c3ccccc23)N(c2ccccc2)c2ccncc21,> 100,
COc1ccc(CNc2nc(NCc3ccc(OC)c(OC)c3)nc(NC3CCCCC3)n2)cc1,> 100,
C=C(C1=CC(=O)C(C)(C)O1)[C@@H]1CC=C([C@@H]2CC[C@H]3[C@@]2(C)CC[C@H]2C(C)(C)C(=O)[C@H](O)C[C@]32C)[C@H](O)O1,5.56,
CC1=CC2C(O1)C1C(=O)C=CC(=O)C1=CC2[N+](=O)[O-] (stereo not drawn),57.2,
O=C(CCC(=O)c1ccc(Cl)cc1)NO,> 100,
COc1c(C)c(C/C=C(\C)CCCCO[Si](c2ccccc2)(c2ccccc2)C(C)(C)C)c(OC)c(OC)c1OC,> 100,
CN1CCN([C@H]2C[C@H]3[C@@H]4CC=C5C[C@@H](O)CC[C@]5(C)[C@H]4CC[C@]3(C)C2=O)CC1,> 100,
COc1ccc(C2c3cc4c(cc3OC(NNS(=O)(=O)c3ccc(C)cc3)C2C)OCO4)cc1 (stereo not drawn),> 100,
C[C@@]12C[C@@H](c3ccccc3O1)N1CCCCSC1=N2,> 100,
CCOC(=O)Nn1c(C)nnc1-c1ccccc1,> 100,
Cc1cn(C2CC(n3cc(Cn4cc(I)c(=O)[nH]c4=O)nn3)C(CO)O2)c(=O)[nH]c1=O (stereo not drawn),> 100,
CNC(=O)OCC1=C(COC(=O)NC)C(C)N(c2ccc(OC)cc2)C1 (stereo not drawn),> 100,
c1ccc(N=C2SC3=Nc4cccc5cccc(c45)N3C2=Nc2ccccc2)cc1,> 100,
Cc1nc(C(N)=S)sc1/C(CC(=O)C(=O)Nc1cccc2ccc(O)cc12)=N\NC(=O)c1ccncc1,> 100,
Cc1cc(O)c2c(=O)c3ccccc3[nH]c2c1,> 100,
Cc1cn(C2CC(N(O)C(N)=O)C(CO)O2)c(=O)[nH]c1=O (stereo not drawn),> 100,
O=C(O)c1cccc2c1/C(=N/Nc1ccccc1)CC2,> 100,
O=C(Cc1cccs1)N[C@@H]1C(=O)N2C(C(=O)OC(c3ccccc3)c3ccccc3)=C(CO)CS[C@H]12,> 100,
CC1=C(C)[C@@]2(C)O[C@@]2(C)O[C@@]2(C)O[C@@]12C,> 100,
Cc1ccccc1-n1c(=O)c2ncn(CCCl)c2n(-c2ccccc2C)c1=S,> 100,

# System: HS 578T breast
# Assay: inhibition of tumour cell growth, NCI panel, 48 h
row,Structure (SMILES),TGI [µM]
1,O=c1[nH][nH]c(=O)n1Cc1ccccc1Cn1c(=O)[nH][nH]c1=O,> 100
